Data published in ChEMBL document CHEMBL2150997, “Profiling of a prescription drug library for potential renal drug-drug interactions mediated by the organic cation transporter 2” (J Med Chem, 2011).

Legend:
[1] = biological target: T1, Solute carrier family 22 member 1 (Homo sapiens, UniProt O15245); assay type: ADME, cell-based
T1 sequence (O15245 whole entry): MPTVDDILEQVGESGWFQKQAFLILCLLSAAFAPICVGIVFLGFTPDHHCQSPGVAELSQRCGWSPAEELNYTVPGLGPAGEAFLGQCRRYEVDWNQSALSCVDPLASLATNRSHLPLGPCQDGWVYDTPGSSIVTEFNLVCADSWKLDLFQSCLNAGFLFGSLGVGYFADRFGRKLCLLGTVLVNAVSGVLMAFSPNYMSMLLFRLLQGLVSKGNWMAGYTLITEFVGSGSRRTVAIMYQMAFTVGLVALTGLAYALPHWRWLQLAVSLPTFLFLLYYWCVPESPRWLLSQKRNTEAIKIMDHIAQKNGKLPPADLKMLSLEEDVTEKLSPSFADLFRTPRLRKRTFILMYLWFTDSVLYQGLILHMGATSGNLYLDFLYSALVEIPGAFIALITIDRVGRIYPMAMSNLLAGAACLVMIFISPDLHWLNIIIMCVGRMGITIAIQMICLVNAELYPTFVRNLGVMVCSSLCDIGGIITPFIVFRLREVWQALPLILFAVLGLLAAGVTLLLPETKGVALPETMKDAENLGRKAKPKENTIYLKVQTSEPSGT
Description: Inhibition of human OCT1 expressed in HEK-293-Flp-In cells incubated for 3 mins by ASP+ substrate uptake assay

[2] = Protein binding in human plasma; assay type: ADME, cell-free; settings: read-out: PPB (converted)
[3] = biological target: T2, Multidrug and toxin extrusion protein 2 (Homo sapiens, UniProt Q86VL8)
T2 sequence (Q86VL8 whole entry): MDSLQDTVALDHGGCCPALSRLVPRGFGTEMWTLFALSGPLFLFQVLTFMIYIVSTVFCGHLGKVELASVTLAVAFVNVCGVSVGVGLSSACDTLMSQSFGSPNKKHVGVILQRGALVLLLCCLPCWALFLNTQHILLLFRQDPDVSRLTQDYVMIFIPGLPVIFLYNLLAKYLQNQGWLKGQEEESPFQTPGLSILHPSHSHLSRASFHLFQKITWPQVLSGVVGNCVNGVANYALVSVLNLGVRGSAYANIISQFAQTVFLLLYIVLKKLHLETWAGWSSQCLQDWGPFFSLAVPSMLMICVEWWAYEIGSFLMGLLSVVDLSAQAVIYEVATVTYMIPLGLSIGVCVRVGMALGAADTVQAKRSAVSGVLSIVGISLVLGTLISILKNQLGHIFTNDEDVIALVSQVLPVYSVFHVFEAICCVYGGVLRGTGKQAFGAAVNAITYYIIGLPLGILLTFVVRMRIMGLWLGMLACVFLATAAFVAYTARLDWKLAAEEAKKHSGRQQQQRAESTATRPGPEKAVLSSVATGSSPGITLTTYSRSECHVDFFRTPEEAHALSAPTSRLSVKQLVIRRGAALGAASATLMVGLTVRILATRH
Description: Inhibition of human MATE2-K expressed in HEK-293-Flp-In cells incubated for 3 mins by ASP+ substrate uptake assay

[4] = biological target: T3, Multidrug and toxin extrusion protein 1 (Homo sapiens, UniProt Q96FL8)
T3 sequence (Q96FL8 whole entry): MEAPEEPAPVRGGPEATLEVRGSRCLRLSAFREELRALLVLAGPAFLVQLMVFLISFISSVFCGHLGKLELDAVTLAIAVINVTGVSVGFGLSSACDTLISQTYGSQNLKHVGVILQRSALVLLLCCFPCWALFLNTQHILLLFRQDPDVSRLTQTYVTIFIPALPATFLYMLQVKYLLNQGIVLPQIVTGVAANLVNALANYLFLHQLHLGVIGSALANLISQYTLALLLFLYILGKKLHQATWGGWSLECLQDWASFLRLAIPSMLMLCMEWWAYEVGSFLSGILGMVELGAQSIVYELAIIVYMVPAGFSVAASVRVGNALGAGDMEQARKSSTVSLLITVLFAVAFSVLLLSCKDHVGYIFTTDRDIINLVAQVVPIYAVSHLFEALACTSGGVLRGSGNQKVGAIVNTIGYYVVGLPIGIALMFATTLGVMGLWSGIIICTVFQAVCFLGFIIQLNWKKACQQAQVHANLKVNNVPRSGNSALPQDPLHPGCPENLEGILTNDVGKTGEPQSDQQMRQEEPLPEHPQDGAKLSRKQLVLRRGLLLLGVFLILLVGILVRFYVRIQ
Description: Inhibition of human MATE1 expressed in HEK-293-Flp-In cells incubated for 3 mins by ASP+ substrate uptake assay

[5] = Cmax in human; assay type: ADME, organism-based; settings: in vivo
[6] = cells; settings: Homo sapiens, 0.05 h
Description: Inhibition of human OCT2 A270S mutant expressed in HEK-293-Flp-In cells incubated for 3 mins by ASP+ substrate uptake assay

[7] = biological target: T4, Solute carrier family 22 member 2 (Homo sapiens, UniProt O15244); assay type: ADME, cell-based
T4 sequence (O15244 whole entry): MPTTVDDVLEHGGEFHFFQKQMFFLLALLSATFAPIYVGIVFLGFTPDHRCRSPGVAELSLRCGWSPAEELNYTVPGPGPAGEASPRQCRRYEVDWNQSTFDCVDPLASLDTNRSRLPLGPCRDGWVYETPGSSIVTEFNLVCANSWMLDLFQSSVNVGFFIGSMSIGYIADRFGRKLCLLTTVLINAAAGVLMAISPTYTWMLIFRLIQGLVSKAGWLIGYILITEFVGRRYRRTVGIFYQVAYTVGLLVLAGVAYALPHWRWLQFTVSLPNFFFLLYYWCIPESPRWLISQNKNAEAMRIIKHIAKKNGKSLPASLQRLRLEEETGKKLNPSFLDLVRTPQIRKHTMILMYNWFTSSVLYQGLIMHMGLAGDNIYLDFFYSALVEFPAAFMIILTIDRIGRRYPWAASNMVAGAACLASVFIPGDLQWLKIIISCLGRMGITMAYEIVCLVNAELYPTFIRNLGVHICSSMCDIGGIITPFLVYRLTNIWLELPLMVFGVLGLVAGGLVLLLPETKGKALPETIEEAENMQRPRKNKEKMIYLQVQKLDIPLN
Description: Inhibition of human OCT2 expressed in HEK-293-Flp-In cells incubated for 3 mins by ASP+ substrate uptake assay

SMILES	IC50 [1] [µM]	fraction unbound [2]	IC50 [3] [µM]	IC50 [4] [µM]	Cmax [5] [µM]	IC50 [6] [µM]	IC50 [7] [µM]
Nc1c2c(nc3ccccc13)CCCC2 [TACRINE]	83	0.45	> 100	–	–	–	–
CN(C)CCCN1c2ccccc2CCc2ccccc21 [IMIPRAMINE]	37	0.1	> 100	10	–	–	–
Cc1nccn1CC1CCc2c(c3ccccc3n2C)C1=O (centres undefined) [ONDANSETRON]	> 100	–	–	–	0.13	–	–
CC(C)N(CCC(C(N)=O)(c1ccccc1)c1ccccn1)C(C)C (centres undefined) [DISOPYRAMIDE]	–	0.5	> 100	66	–	–	–
OCCN(CCO)c1nc(N2CCCCC2)c2nc(N(CCO)CCO)nc(N3CCCCC3)c2n1 [DIPYRIDAMOLE]	81	–	–	–	–	–	–
CN/C(=N\CCSCc1nc[nH]c1C)NC#N [CIMETIDINE]	> 100	0.81	39	–	11.9	20	23
